Source: US20260151372A1, “AZOTOMYCIN PRODRUGS WITH PREFERENTIAL TUMOR DELIVERY” (The Johns Hopkins University, priority 2022, published 2026)
“Also recorded” adds a separate entry of the source.

What was measured:
[1] = Plasma stability in CES1KO mouse plasma; format: in vitro ADME; conditions: for Plasma Stability (% Remaining at 60 min) CES1^−/− Mouse Plasma: 37° C.; for stability in vitro (in words): mouse and human plasma and liver microsomes in vitro
Protocol: (§1) In vitro stability studies were done using CES1KO mouse plasma, human plasma, CES1-KO mouse liver, and human liver microsomes as previously described. For tissue homogenate stability studies, washed tissue was diluted 10-fold in 0.1 M potassium phosphate buffer and homogenized using probe sonication. Crude homogenate was then aliquoted to 1 mL, and spiked with 10 mM stock of the analyte in DMSO to achieve a 10 μM final concentration. The plasma stability of the prodrugs was determined by spiking the analyte in 1 mL of plasma. The plasma and tissues were incubated in an orbital shaker at 37° C. Stability in human liver microsomes was assessed at a final prodrug concentration of 1 μM with 0.2 mg/mL protein for microsomes. All the stability studies were conducted at predetermined times (0 and 60 min), where 50 μL aliquots of the mixture in triplicate were removed and the reaction was quenched by addition of 5 times the volume of ice-cold methanol spiked with the internal standard (losartan: 0.5 μM). The samples were vortex-mixed for 30 s and centrifuged at 10,000 g for 10 min at 4° C. An amount of 50 μL of the supernatant was diluted with 50 μL of water and transferred to a 250 μL polypropylene vial sealed with a Teflon cap. Prodrug disappearance was monitored over time using liquid chromatography and mass spectrometry (LC-MS).
(§2) Analyses were performed on a Dionex ultra high-performance LC system coupled with Q Exactive Focus orbitrap mass spectrometer (Thermo Fisher Scientific Inc., Waltham MA). Separation was achieved using Agilent Eclipse Plus column (100×2.1 mm i.d., maintained at 35° C.) packed with a 1.8 μm C18 stationary phase. The mobile phase consisted of 0.1% formic acid in water and 0.1% formic acid in acetonitrile, […] were operated at a flow rate of 0.3 mL/min for 7 min using gradient elution. The mass spectrometer controlled by Xcalibur software 4.0.27.13 (Thermo Scientific) was operated with a HESI ion source in positive ionization mode. Metabolites were identified in the full-scan mode (from m/z 50 to 1600) by comparing […] samples

[2] = Plasma stability in human plasma; format: in vitro ADME; conditions: 37° C.
Protocol: as §1, §2

[3] = Pharmacokinetics in C57BL/6 CES1^−/− mice bearing flank EL4 tumors; format: in vivo
Protocol: The pharmacokinetic study in C57BL/6 CES1 mice was conducted according to protocols reviewed and approved by the Johns Hopkins Institutional Animal Care and Use Committee in compliance with the Association for Assessment and Accreditation of Laboratory Animal Care International and the Public Health Service Policy on the Humane Care and Use of Laboratory Animals (PHS Policy). Briefly, naïve male and female C57BL/6 CES1^−/− mice (weighing between 25 and 30 g) 6-8 weeks of age were used. The animals were maintained on a 12 h light-dark cycle with ad libitum access to food and water. Tumors were grown via subcutaneous (SC) injection of EL4 cells (1×10^6 cells in 0.2 mL of phosphate-buffered saline) in one location on the flank of each mouse. […]
For quantifying intact analytes in the pharmacokinetic samples, plasma samples (25 μL) were processed using a single step protein precipitation method by addition of 125 μL of methanol containing internal standard (losartan: 0.5 μM), followed by vortex-mixing for 30 s and then centrifugation at 16,000 g for 5 min at 4° C. […]
The samples were subjected to dabsyl chloride derivatization and analyzed by LC-MS/MS, as described in Tenora et al., 2019. […]

[4] = Metabolic stability in human liver microsomes; format: in vitro ADME; conditions: 1 μM prodrug, 0.2 mg/mL protein
Protocol: as §1, §2

[5] = Metabolic stability in CES1-KO mouse liver homogenate; format: in vitro ADME; conditions: tissue homogenate, 10 μM, 37° C.
Protocol: as §1, §2

Row | Structure (SMILES) | Plasma Stability (% Remaining at 60 min) CES1^−/− Mouse Plasma [1] [%] | stability in vitro (in words) [1] | Plasma Stability (% Remaining at 60 min) Human Plasma [2] [%] | preferential tumor delivery / tumor targeting (in words) [3] | Liver Stability (% Remaining at 60 min) Human Liver Microsomes [4] [%] | Liver Stability (% Remaining at 60 min) CES1^−/− Mouse Liver [5] [%]
1 | CN(C)CC(=O)N[C@@H](Cc1c[nH]c2ccccc12)C(=O)N[C@@H](CCC(=O)N[C@@H](CCC(=O)C=[N+]=[N-])C(=O)N[C@@H](CCC(=O)C=[N+]=[N-])C(=O)OC(C)(C)C)C(=O)OC(C)(C)C [Prodrug P4, tert-Butyl (6S,9S,14S,17S)-6-((1H-indol-3-yl)methyl)-9-(tert-butoxycarbonyl)-14,17-bis(4-diazo-3-oxobutyl)-2-methyl-4,7,12,15-tetraoxo-2,5,8,13,16-pentaazaoctadecan-18-oate] | 101 ± 4.67 | stable | 100 ± 0.00 | exhibited preferential tumor delivery; also recorded: showed tumor targeting | 107 ± 1.63 | 54.3 ± 1.45
2 | CN(C)CC(=O)N[C@@H](CCC(=O)N[C@@H](CCC(=O)C=[N+]=[N-])C(=O)N[C@@H](CCC(=O)C=[N+]=[N-])C(=O)OC(C)(C)C)C(=O)OC(C)(C)C [Prodrug P3, tert-Butyl (6S,11S,14S)-6-(tert-butoxycarbonyl)-11,14-bis(4-diazo-3-oxobutyl)-2-methyl-4,9,12-trioxo-2,5,10,13-tetraazapentadecan-15-oate] | 92.3 ± 0.882 | stable | 106 ± 2.40 | exhibited preferential tumor delivery | 105 ± 2.53 | 96.0 ± 4.36
3 | CN(C)CC(=O)N[C@@H](CCC(=O)N[C@@H](CCC(=O)C=[N+]=[N-])C(=O)N[C@@H](CCC(=O)C=[N+]=[N-])C(=O)OC(C)(C)C)C(=O)[O-].[Na+] [Prodrug P15, Sodium N^5—((S)-1-(((S)-1-(tert-butoxy)-6-diazo-1,5-dioxohexan-2-yl)amino)-6-diazo-1,5-dioxohexan-2-yl)-N^2-(dimethylglycyl)-L-glutaminate] | >100 | – | 104 ± 8.45 | – | 93.2 ± 4.29 | 99.9 ± 3.45
4 | CC(C)(C)OC(=O)[C@H](CCC(=O)C=[N+]=[N-])NC(=O)[C@H](CCC(=O)C=[N+]=[N-])NC(=O)CC[C@H](N)C(=O)OC(C)(C)C [Prodrug P1, tert-Butyl (S)-2-((S)-2-((S)-4-amino-5-(tert-butoxy)-5-oxopentanamido)-6-diazo-5-oxohexanamido)-6-diazo-5-oxohexanoate] | 101 ± 3.38 | – | 104 ± 1.00 | – | 105 ± 0.859 | 87.0 ± 8.51
